Patent publication US20180161433A1, “SIZE TUNABLE MICROBIAL MIMETICS FOR IMMUNOTHERAPY OF THYROID CARCINOMAS AND SOLID TUMORS” (priority 2017, published 2018)
Entries after “also recorded” stand apart in the source; their conditions may differ. Strand notation (5' to 3'): a small letter for the sugar, then the base; units joined by * are phosphorothioate-linked, units joined directly phosphodiester-linked; [ ] holds rarer units or linkages, { } end groups; capitals alone tell only the bases. r = 2'-OH (RNA)

Assays:
[1] = system: Human peripheral blood mononuclear cells (PBMCs); experiment: Induced cytokine secretion by PBMCs (ELISA); format: cell-based; details: for cytokine secretion when complexed to the CAL2 peptide: complexed to CAL2, versus the component on its own; for cytokine secretion, component on its own: individual component, 24 hours
Procedure: (§1) FIG. 10 is bar graph showing the induced secretion of IL-6 by PBMCs exposed to PolyIC, RNA248, DNA4, DNA10, PolyIC complexed with SEQ. ID NO. 36 (CAL2), RNA248 complexed with SEQ. ID NO. 36, DNA4 complexed with SEQ. ID NO. 36, DNA10 complexed with SEQ. ID NO. 36, DNA4 and RNA248 complexed with SEQ. ID NO. 36, Pam2CSK4-conjugated SEQ. ID NO. 36 complexed with DNA4 and SEQ. ID NO. 36 alone. Each well contained ˜300,000 fresh PBMCs in a total volume of 100 μL of RPMI medium. Solutions of SEQ. ID NO. 36, PolyIC, DNA4, DNA10, Pam2CSK4-conjugated SEQ. ID NO. 36 were all pre-mixed to concentrations of 50 ug/mL (for each peptide reagent) and then added to wells in volumes of 100 uL, such that each well contained a 200 uL volume of PBMCs and reagents. Wells were run in triplicate and the mean value is indicated.
as §1, with “FIG. 11” for “FIG. 10”, “of IL-10” for “of IL-6”
FIG. 12 is a bar graph showing the induced secretion of IL-12 by PBMCs exposed to PolyIC, RNA248, DNA4, DNA10, PolyIC complexed with SEQ. ID NO. 36 (CAL2), RNA248 complexed with SEQ. ID NO. 36, DNA4 complexed with SEQ. ID NO. 36, DNA10 complexed with SEQ. ID NO. 36, DNA4 and RNA248 complexed with SEQ. ID NO. 36, Pam2CSK4-conjugated SEQ. ID NO. 36 complexed with DNA4 and SEQ. ID NO. 36 alone. Each well contained ˜300,000 fresh PBMCs in a total volume of 100 μL of RPMI medium. Solutions of SEQ. ID NO. 36, PolyIC, DNA4, DNA10, Pam2CSK4-conjugated SEQ. ID NO. 36 were all pre-mixed to concentrations of 50 ug/mL (for each peptide reagent) and then added to wells in volumes of 100 uL, such that each well contained a 200 uL volume of PBMCs and reagents. Wells were run in triplicate and the mean value is indicated.
FIG. 13 is a bar graph showing the induced secretion of IL-15 by PBMCs exposed to PolyIC, RNA248, DNA4, DNA10, PolyIC complexed with SEQ. ID NO. 36 (CAL2), RNA248 complexed with SEQ. ID NO. 36, DNA4 complexed with SEQ. ID NO. 36, DNA10 complexed with SEQ. ID NO. 36, DNA4 and RNA248 complexed with SEQ. ID NO. 36, Pam2CSK4-conjugated SEQ. ID NO. 36 complexed with DNA4 and SEQ. ID NO. 36 alone. Each well contained ˜300,000 fresh PBMCs in a total volume of 100 μL of RPMI medium. Solutions of SEQ. ID NO. 36, PolyIC, DNA4, DNA10, Pam2CSK4-conjugated SEQ. ID NO. 36 were all pre-mixed to concentrations of 50 ug/mL (for each peptide reagent) and then added to wells in volumes of 100 uL, such that each well contained a 200 uL volume of PBMCs and reagents. Wells were run in triplicate and the mean value is indicated.
as §1, with “FIG. 14” for “FIG. 10”, “is a” for “is”, “of IFN-α” for “of IL-6”, “reagents. […]” for “reagents. Wells were run in triplicate and the mean value is indicated.”

DNA4/RNA248 = experiment: MM complex stability by gel electrophoresis; format: physicochemical; details: for complex formation with DNA4/RNA248: disappearance of free DNA4/RNA248 at sufficient peptide concentrations
Procedure: FIG. 9 is an image generated from a gel electrophoresis experiment (20 V/cm), whereby SEQ. ID NO. 36 (1 mg/mL) was mixed with DNA4/RNA248 (1 mg/mL) at ratios of 1:4 (Lane #2), 1:2 (Lane #3), 1:1 (Lane #4), 2:1 (Lane #5), and 4:1 (Lane #6) SEQ. ID NO. 36 to DNA4/RNA248. For reference, only DNA4/RNA248 was placed in Lane #1. The DNA4/RNA248 mixture travels in the gel away from the negative electrode (top) due its inherent negative charge.
Given the importance of forming stable complexes of antigenic cargo with immune-stimulatory molecules, the stability of MM was characterized using gel electrophoresis. MM were formed by mixing CAL2 (SEQ. ID NO. 36) with […] at varying ratios. […] The experiment was repeated for several other peptides, including SEQ. ID NOS. 34 and 42. […] Furthermore, the intensity of each band decreased as concentration of peptide increased. The presence of the linker sequence, RRHRKRR (SEQ. ID NO. 64), was determined to be critical for stable complexation. Separately, solutions of MM were tested after sitting at room temperature for 2 weeks yielding nearly identical results.

[2] = system: metastatic iodine-refractory differentiated thyroid cancer (DTC); details: cited from earlier work
[3] = system: activated circulating CTLs; details: PD-1+ and LAG-3+ gated flow cytometry; cited from earlier work
[4] = 25 μg/mL, 24 hours, 300,000 PBMCs per well

5′-TCGTCGGTTTCGGCGCGCGCCG-3′ (DNA, all phosphorothioate, methylation of C not given here; further chemistry not fully specified) [DNA4]
induced secretion of IL-12 [1, 4]: does not induce secretion
induced secretion of IL-15 [1, 4]: does not induce secretion
cytokine secretion when complexed to the CAL2 peptide [1]: marked increase
cytokine secretion, component on its own ([1]; 25 μg/mL): minimal

5′-TTCGGCGCGCGCGCGCGCGCGCCGTT-3′ (DNA, all phosphorothioate, methylation of C not given here; further chemistry not fully specified) [DNA10]
cytokine secretion when complexed to the CAL2 peptide [1]: marked increase
cytokine secretion, component on its own ([1]; 25 μg/mL): minimal

5′-guuggugguugugugagcgu-3′ (rG*rU*rU*rG*rG*rU*rG*rG*rU*rU*rG*rU*rG*rU*rG*rA*rG*rC*rG*rU) [RNA248]
cytokine secretion when complexed to the CAL2 peptide [1]: marked increase
cytokine secretion, component on its own ([1]; 25 μg/mL): minimal; also recorded: very minimal

34 (RRHRKRRLSTCMLGTYTQDFNKFHTFPQTAIRRHRKRR; targeting calcitonin) [compound 34]
complex formation with DNA4/RNA248 (DNA4/RNA248): stable complexes were formed

42 (RIPVKWTAIESLFDHRRHRKRR; targeting RETM918T) [compound 42]
complex formation with DNA4/RNA248 (DNA4/RNA248): stable complexes were formed

COc1cc2nccc(Oc3ccc(NC(=O)NC4CC4)c(Cl)c3)c2cc1C(N)=O [lenvatinib]
overall survival benefits [2]: marginal
progression free survival [2]: improved

CNC(=O)c1cc(Oc2ccc(NC(=O)Nc3ccc(Cl)c(C(F)(F)F)c3)cc2)ccn1 [sorafenib]
overall survival benefits [2]: marginal
progression free survival [2]: improved

RRHRKRRLSTCMLGTYTQDFNKFHTFPQTAI (targeting calcitonin) [SEQ. ID NO. 36]
cytokine secretion, component on its own ([1]; 25 μg/mL): very minimal
nucleotide bands in gel (DNA4/RNA248; SEQ. ID NO. 36 to DNA4/RNA248 2:1 (Lane #5) and 4:1 (Lane #6), 20 V/cm, FIG. 9): no nucleotide bands are seen
free DNA4/RNA248 in gel (DNA4/RNA248; peptide to DNA4/RNA248 ratios exceeding 2:1, electric field of 20 V/cm): no free DNA4/RNA248 could be visualized

B1: PEGylated IL-10: PEGylated IL-10 given to patients (protein, UniProt P22301 19-178, looked up)
Interleukin-10: SPGQGTQSENSCTHFPGNLPNMLRDLRDAFSRVKTFFQMKDQLDNLLLKESLLEDFKGYLGCQALSEMIQFYLEEVMPQAENQDPDIKAHVNSLGENLKTLRLRLRRCHRFLPCENKSKAVEQVKNAFNKLQEKGIYKAMSEFDIFINYIEAYMTMKIRN
modifications: PEGylated
numbers of activated circulating CTLs [3]: increased
